# PMC2956696, “A novel antiangiogenic peptide derived from hepatocyte growth factor inhibits neovascularization in vitro and in vivo” (Molecular Vision, 2010)
# No end group written: not given here.
# Key:
# RF/6A cells [1] = test: Cell viability with H-RN alone (MTS); format: cell-based, rhesus macaque; conditions: any concentration tested, vs culture medium group
# Experimental: A cell proliferation assay was performed as described previously. A colorimetric MTS (3-(4,5-dimeth-ylthiazol-2-yl)-5-(3-carboxymethoxyphenol)-2-(4-sulphophenyl)-2H-tetrazolium) assay (CellTiter 96 AQ; Promega, Madison, WI) was used according to the manufacturer’s instructions. Briefly, cells were seeded onto a 96-well plate (4.8×10^3 cells/well). After 24 h, cells were serum-starved overnight, and then treated with 100 ng/ml VEGF and various doses of H-RN or H-FT (0, 1 μM, 10 μM, 100 μM, or 1 mM) in 100 μl of serum-free medium for an additional 24 h. In positive control group, 100 μl of serum-free medium contains 100 ng/ml VEGF and 0.25 or 2.5 mg/ml bevacizumab (Avastin®, Hoffmann-La Roche Ltd., Basel, Switzerland), and the negative control group contains 100 ng/ml VEGF and a scrambled peptide at concentrations of 1 μM, 10 μM, 100 μM, or 1 mM. […] The absorbance at 490 nm was recorded using a microplate reader (Bio-Rad, Model 680, Hercules, CA). […]
# RF/6A cells were exposed for 24 h to VEGF (100 ng/ml), or to VEGF combined with various concentrations of bevacizumab, H-RN, or H-FT. […] At the highest dose of H-RN tested (1 mM), the mean absorbance value was very close to that of the control group (0.735 versus 0.673), though this inhibitory effect was not as strong as that of 2.5 mg/ml bevacizumab (0.735 versus 0.615). […]
# RF/6A cells [2] = test: VEGF-stimulated cell proliferation assay (MTS); format: cell-based, rhesus macaque; conditions: 24 h
# Experimental: A cell proliferation assay was performed as described previously. A colorimetric MTS (3-(4,5-dimeth-ylthiazol-2-yl)-5-(3-carboxymethoxyphenol)-2-(4-sulphophenyl)-2H-tetrazolium) assay (CellTiter 96 AQ; Promega, Madison, WI) was used according to the manufacturer’s instructions. Briefly, cells were seeded onto a 96-well plate (4.8×10^3 cells/well). After 24 h, cells were serum-starved overnight, and then treated with 100 ng/ml VEGF and various doses of H-RN or H-FT (0, 1 μM, 10 μM, 100 μM, or 1 mM) in 100 μl of serum-free medium for an additional 24 h. In positive control group, 100 μl of serum-free medium contains 100 ng/ml VEGF and 0.25 or 2.5 mg/ml bevacizumab (Avastin®, Hoffmann-La Roche Ltd., Basel, Switzerland), and the negative control group contains 100 ng/ml VEGF and a scrambled peptide at concentrations of 1 μM, 10 μM, 100 μM, or 1 mM. After completion of the treatment, 20 μl of the 3-(4,5-dimethylthiazol-2-yl)-5-(3-carboxymethoxyphenol)-2-(4-sulphophenyl)-2H-tetrazolium (MTS) reagent were pipetted into each well and incubated for 4 h. The absorbance at 490 nm was recorded using a microplate reader (Bio-Rad, Model 680, Hercules, CA). Each group was tested at least in triplicate, and the assays were repeated a minimum of three times.
# RF/6A cells [3] = test: Endothelial cell tube formation assay on Matrigel; format: cell-based, rhesus macaque; conditions: 100 ng/ml VEGF, 6 h, peptides 100 nM-1 mM, bevacizumab both concentrations
# Experimental: A tube formation assay was performed as previously described. The 96 well culture plate were coated with Matrigel™ (BD Biosciences, Bedford, MA) according to the manufacturer’s instructions. RF/6A cells (2.5×10^4 in number) were preincubated with various concentrations of bevacizumab or peptides (100 nM–1 mM) before being seeded on coated plates in a serum-free medium containing VEGF 100 ng/ml, and then incubated at 37 °C for 6 h. Tube formation was observed using an inverted phase contrast microscope (Olympus, Tokyo, Japan). Images were captured with a digital camera (Olympus). The degree of tube formation was quantified by measuring the length of tubes in three randomly chosen fields (with magnification of ×100) from each well using the Image-Pro Plus Program (version 5.1; Media Cybernetics, Inc.). Each group was tested in triplicate. Each experiment was repeated three times.
# RF/6A cells [4] = test: VEGF-driven cell migration assay (Transwell); format: cell-based, rhesus macaque; conditions: 100 ng/ml VEGF, 24 h, H-FT 1 nM to 1 µM, bevacizumab both concentrations
# Experimental: A cell migration assay was performed as described previously, with modification as below. Briefly, RF/6A cells were starved overnight, trypsinized, and suspended at a final concentration of 5×10^5 cells/ml. Various concentrations of bevacizumab or peptides were preincubated with the cells for 30 min at 37 °C before seeding into the Transwell chambers (pretreated by culture medium, 10 mm diameter, 8.0 µm pore size; Corning Inc., New York, NY), the 5×10^4 cells were added to each upper chamber. VEGF (100 ng/ml) was placed into the lower chamber. The assembled cell-culture insert chamber was then incubated at 37 °C for 24 h. After removing the nonmigrating cells in the upper chambers with a cotton swab, migrated cells on the lower surface of the porous membrane were fixed, stained with Gram stain, and photographed under a light microscope (Olympus, Tokyo, Japan). Five random fields (×200) were chosen in each insert, and the cell number was quantified manually. Each experiment was repeated three times.
substance,measurement,setting,value
H-FTSNPEVRYEV-OH,Peptide remaining after 48 h,,> 90%
RNPRGEEGGPW [H-RN],Peptide remaining after 48 h,,> 90%
same,Cell viability with peptide alone (in words),RF/6A cells [1],cell viability was not affected
bevacizumab,Inhibition of VEGF-induced cell proliferation (in words),"RF/6A cells [2]; 100 ng/ml VEGF, peptides 1 μM-1 mM, bevacizumab 2.5 mg/ml",strongly inhibited
same,"Mean absorbance value (490 nm, MTS), VEGF-induced proliferation","RF/6A cells [2]; 2.5 mg/ml bevacizumab + 100 ng/ml VEGF, serum-free medium, control group 0.673",0.615
same,Inhibition of VEGF-induced tube formation (in words),RF/6A cells [3],strongly inhibited
same,Inhibition of VEGF-induced cell migration (in words),RF/6A cells [4],effectively inhibited cell migration
